Test results taken from patent US8431514B2, “4-cyano-3-benzoylamino-N-phenyl-benzamides for use in pest control” (Syngenta Crop Protection LLC, priority 2009, dated 2013).
Like-named read-outs stand apart in the source and are kept apart here.

Tests used:
Type in all cases: in vivo
Spodoptera littoralis = Spodoptera littoralis (Egyptian cotton leafworm) leaf disc spray test; conditions: foliar, 72 h, application rate 200 ppm, cotton leaf discs, 5 L1 larvae, mortality, feeding behavior and growth regulation 3 days after treatment
Method: (§1) These Examples illustrate the insecticidal and acaricidal properties of the compounds of formula (I). The tests were performed as follows:
(§2) Cotton leaf discs were placed on agar in a 24-well microtiter plate and sprayed with test solutions at an application rate of 200 ppm. After drying, the leaf discs were infested with 5 L1 larvae. The samples were checked for mortality, feeding behavior, and growth regulation 3 days after treatment (DAT). The following compound gave at least 80% control of Spodoptera littoralis: A1, A2, A3, A4, A5, A6, A7, A8, A9, A10, A11, A12, A14, A15, A16, A17, A18, A19, A20. Heliothis Virescens (Tobacco Budworm): Eggs (0-24 h old) were placed in 24-well microtiter plate on artificial diet and treated with test solutions at an application rate of 200 ppm (concentration in well 18 ppm) by pipetting. After an incubation period of 4 days, samples were checked for egg mortality, larval mortality, and growth regulation. The following compound gave at least 80% control of Heliothis virescens: A1, A2, A3, A4, A5, A6, A7, A8, A9, A10, A11, A12, A14, A15, A16, A17, A18, A19, A20. Plutella Xylostella (Diamond Back Moth): 24-well microtiter plate (MTP) with artificial diet was treated with test solutions at an application rate of 200 ppm (concentration in well 18 ppm) by pipetting. After drying, the MTP's were infested with L2 larvae (7-12 per well). After an incubation period of 6 days, samples were checked for larval mortality and growth regulation. The following compound gave at least 80% control of Plutella xylostella: A1, A2, A3, A4, A5, A6, A7, A8, A9, A10, A11, A12, A13, A14, A15, A16, A17, A18, A19, A20. Diabrotica Balteata (Corn Root Worm): A 24-well microtiter plate (MTP) with artificial diet was treated with test solutions at an application rate of 200 ppm (concentration in well 18 ppm) by pipetting. After drying, the MTP's were infested with L2 larvae (6-10 per well). After an incubation period of 5 days, samples were checked for larval mortality and growth regulation. The following compound gave at least 80% control of Diabrotica balteata: A1, A2, A3, A4, A5, A6, A7, A8, A9, A10, A11, A12, A13, A14, A16, A17, A18, A19, A20. Thrips Tabaci (Onion Thrips): Sunflower leaf discs were placed on agar in a 24-well microtiter plate and sprayed with test solutions at an application rate of 200 ppm. After drying, the leaf discs were infested with an […] population of mixed ages. After an incubation period of 7 days, samples were checked for mortality. The following compounds gave at least 80% control of Thrips tabaci: A1, A2, A3, A4, A5, A6, A7, A8, A9, A10, A14, A16, A17, A18, A19, A20. Tetranychus Urticae (Two-Spotted Spider Mite): Bean leaf discs on agar in 24-well microtiter plates were sprayed with test solutions at an application rate of 200 ppm. After drying, the leaf discs are infested with mite populations of mixed ages. 8 days later, discs are checked for egg mortality, larval mortality, and adult mortality. The following compounds gave at least 80% control of Tetranychus urticae: A1, A2, A3, A4, A5, A6, A7, A8, A9, A10, A11, A12, A13, A14, A15, A16, A17, A19, A20.

Thrips tabaci = Thrips tabaci (onion thrips) sunflower leaf disc spray test; conditions: foliar, 168 h, application rate 200 ppm, sunflower leaf discs, population of mixed ages, mortality after 7 days
Method: as §1, §2

Tetranychus urticae = Tetranychus urticae (two-spotted spider mite) bean leaf disc spray test; conditions: foliar, 192 h, read-out: control of Tetranychus urticae
Method: as §1, §2

Diabrotica balteata = Diabrotica balteata (corn root worm) artificial diet test; conditions: 120 h, application rate 200 ppm (concentration in well 18 ppm), L2 larvae, larval mortality and growth regulation after 5 days
Method: as §1, §2

Heliothis virescens = Heliothis virescens (tobacco budworm) egg test on artificial diet; conditions: 96 h, application rate 200 ppm (concentration in well 18 ppm), eggs 0-24 h old on artificial diet, egg mortality, larval mortality and growth regulation after 4 days
Method: as §1, §2

Plutella xylostella = Plutella xylostella (diamond back moth) artificial diet test; conditions: 144 h, application rate 200 ppm (concentration in well 18 ppm), L2 larvae, larval mortality and growth regulation after 6 days
Method: as §1, §2

[1] = application rate 200 ppm, bean leaf discs, mite populations of mixed ages, egg, larval and adult mortality 8 days later

Measured: pest or weed control at 200 ppm

COCc1cc(C(F)(C(F)(F)F)C(F)(F)C(F)(F)F)cc(C)c1NC(=O)c1ccc(C#N)c(NC(=O)c2ccc(C#N)cc2C)c1 (stereo not drawn) [A9, 4-cyano-3-(4′-cyano-2′-methyl-benzoylamino)-N-[4-(1,2,2,3,3,3-hexafluoro-1-trifluoromethylpropyl)-2-methoxymethyl-6-methylphenyl]benzamide]
≥ 80%: Spodoptera littoralis | Thrips tabaci | Tetranychus urticae; [1] | Diabrotica balteata | Heliothis virescens | Plutella xylostella

CSc1cc(C(F)(C(F)(F)F)C(F)(F)C(F)(F)F)cc(Cl)c1NC(=O)c1ccc(C#N)c(NC(=O)c2ccc(C#N)cc2C)c1 (stereo not drawn) [A10, N-[2-chloro-4-(1,2,2,3,3,3-hexafluoro-1-trifluoromethylpropyl)-6-methylthiophenyl]-4-cyano-3-(4′-cyano-2′-methylbenzoylamino)benzamide]
≥ 80%: Spodoptera littoralis | Thrips tabaci | Tetranychus urticae; [1] | Diabrotica balteata | Heliothis virescens | Plutella xylostella

Cc1cc(C#N)ccc1C(=O)Nc1cc(C(=O)Nc2c(Cl)cc(C(F)(C(F)(F)F)C(F)(F)F)c(F)c2Cl)ccc1C#N [A14, 4-cyano-3-(4′-cyano-2′-methylbenzoylamino)-N-[2,6-dichloro-3-fluoro-4-(1,2,2,2-tetrafluoro-1-trifluoromethylethyl)phenyl]benzamide]
≥ 80%: Spodoptera littoralis | Thrips tabaci | Tetranychus urticae; [1] | Diabrotica balteata | Heliothis virescens | Plutella xylostella

Cc1cc(C#N)ccc1C(=O)Nc1cc(C(=O)Nc2c(C)cc(C(F)(C(F)(F)F)C(F)(F)C(F)(F)F)cc2C)ccc1C#N (stereo not drawn) [A16, 4-cyano-3-(4′-cyano-2′-methyl-benzoylamino)-N-[2,6-dimethyl-4-(1,2,2,3,3,3-hexafluoro-1-trifluoromethylpropyl)phenyl]benzamide]
≥ 80%: Spodoptera littoralis | Thrips tabaci | Tetranychus urticae; [1] | Diabrotica balteata | Heliothis virescens | Plutella xylostella

Cc1cc(C#N)ccc1C(=O)Nc1cc(C(=O)Nc2c(C)cc(C3(F)C(F)(F)C(F)(F)C(F)(F)C(F)(F)C3(F)F)cc2C)ccc1C#N [A17, 4-cyano-3-(4′-cyano-2′-methylbenzoylamino)-N-[2,6-dimethyl-4-(undecafluorocyclohexyl)phenyl]benzamide]
≥ 80%: Spodoptera littoralis | Thrips tabaci | Tetranychus urticae | Diabrotica balteata | Heliothis virescens | Plutella xylostella

Cc1cc(C#N)ccc1C(=O)Nc1cc(C(=O)Nc2c(Cl)cc(C(F)(C(F)(F)F)C(F)(F)F)cc2Cl)ccc1C#N [A19, 4-cyano-3-(4′-cyano-2′-methylbenzoylamino)-N-[2,6-dichloro-4-(1,2,2,2-tetrafluoro-1-trifluoromethylethyl)phenyl]benzamide]
≥ 80%: Spodoptera littoralis | Thrips tabaci | Tetranychus urticae; [1] | Diabrotica balteata | Heliothis virescens | Plutella xylostella

Cc1cc(C#N)ccc1C(=O)Nc1cc(C(=O)Nc2c(Cl)cc(C(F)(C(F)(F)F)C(F)(F)F)cc2Br)ccc1C#N [A20, 4-cyano-3-(4′-cyano-2′-methylbenzoylamino)-N-[2-bromo-6-chloro-4-(1,2,2,2-tetrafluoro-1-trifluoromethylethyl)phenyl]benzamide]
≥ 80%: Spodoptera littoralis | Thrips tabaci | Tetranychus urticae; [1] | Diabrotica balteata | Heliothis virescens | Plutella xylostella
